Data: patent US5672715A, “Herbicidal substituted 3-aryl-pyrazoles” (Monsanto Company, priority 1995, dated 1997)
“And” between values parts separate entries of the source, which are not always exact repeats. Equal entries are not always repeated.

How the values were obtained:
Format in all cases: in vivo
[1] = tested on: Blackgrass; assay: pre-emergence herbicide test; conditions: Alopecurus myosuroides, pre-emergence, 0.25 lb/A; read-out: % plant inhibition
Protocol: (§1) Topsoil was placed in an aluminum pan and compacted to a depth of 1.3 to 1.6 cm from the top of the pan. On the top of the soil was placed a predetermined number of seeds of each of several monocotyledonous and dicotyledonous annual plant species and/or vegetative propagules of various perennial plant species. The pan was then level filled with a cover layer of topsoil to which was added a known amount of active ingredient either prior to or after application of the cover layer. The active ingredient was dissolved or suspended in an organic solvent, e.g., acetone, or water as carrier for application to the cover layer. The pans were moved to a greenhouse bench where they were thereafter watered from below as needed to give adequate moisture for germination and growth. In some cases, an initial overhead irrigation of 1/4 inch of water was applied immediately after treatment.
(§2) Approximately 14 days after seeding and treating, the pans were observed and the results (% inhibition) were recorded.
(§3) The tables below summarize the results of the pre-emergence herbicidal activity tests of compounds of this invention tested with warm season plants (Tables 2a-2d) and cool season plants (Tables 3a and 3b). The herbicidal rating shown in these tables is the percent inhibition of each plant species. The plant species usually regarded as weeds are identified in the tables by single letter headings and crop species identified by two letter headings both headings being above the columns in accordance with the following legend: […]

[2] = tested on: Birdseye Speedwell; assay: pre-emergence herbicide test; conditions: pre-emergence, 0.25 lb/A; read-out: % plant inhibition
Protocol: as §1, §2, §3

[3] = tested on: Rape; assay: pre-emergence herbicide test; conditions: pre-emergence, 0.25 lb/A; read-out: % plant inhibition
Protocol: as §1, §2, §3

[4] = tested on: Downy Brome; assay: pre-emergence herbicide test; conditions: Bromus tectorum, pre-emergence, 0.25 lb/A; read-out: % plant inhibition
Protocol: as §1, §2, §3

[5] = tested on: Corn; assay: pre-emergence herbicide test; conditions: 0.25 lb/A
Protocol: as §1, §2, §3

[6] = tested on: Soybean; assay: pre-emergence herbicide test; conditions: 0.25 lb/A
Protocol: as §1, §2, §3

[7] = tested on: Bedstraw Catchweed; assay: pre-emergence herbicide test; conditions: Galium aparine, pre-emergence, 0.25 lb/A; read-out: % plant inhibition
Protocol: as §1, §2, §3

[8] = tested on: Green Foxtail; assay: pre-emergence herbicide test; conditions: Setaria viridis, pre-emergence; 0.25 lb/A; read-out: % plant inhibition
Protocol: as §1, §2, §3

[9] = tested on: Common Chickweed; assay: pre-emergence herbicide test; conditions: pre-emergence, 0.25 lb/A; read-out: % plant inhibition
Protocol: as §1, §2, §3

[10] = tested on: Wild Oats; assay: pre-emergence herbicide test; conditions: Avena fatua, pre-emergence, 0.25 lb/A; read-out: % plant inhibition
Protocol: as §1, §2, §3

[11] = tested on: Wheat; assay: pre-emergence herbicide test; conditions: Triticum aestivum, pre-emergence, 0.25 lb/A; read-out: % plant inhibition
Protocol: as §1, §2, §3

[12] = tested on: Blackgrass; assay: post-emergence herbicide test; conditions: Alopecurus myosuroides, post-emergence, 0.25 lb/A; read-out: % plant inhibition
Excerpt: (§4) Topsoil was placed in aluminum pans having holes in the bottom and compacted to a depth of 1.3 to 1.6 cm from the top of the pan. A predetermined number of seeds of each of several dicotyledonous and monocotyledonous annual plant species and/or vegetative propagules for the perennial plant species were placed on the soil and pressed into the soil surface. The seeds and/or vegetative propagules were covered with soil and leveled. The pans were then placed on a bench in the greenhouse and watered either from overheard irrigation or by subirrigation as needed. After the plants reach the desired age (two to three weeks), each pan, is removed individually to a spraying chamber and sprayed by means of an atomizer, operating at a spray pressure of 170.3 kPa […] at the application rates noted. In the spray solution was an amount of an emulsifying agent mixture to give a spray solution or suspension which contains about 0.4% by volume of the emulsifier. The spray solution or suspension contained a sufficient amount of the candidate chemical in order to give application rates of the active ingredient corresponding to those shown in Tables 4 and 5, while applying a total amount of solution or suspension equivalent to 1870 L/Ha (200 gallons/acre). […] The post-emergent herbicidal activity shown in these tables is the percent inhibition of each plant species. Testing with warm season and cool season plants is shown in tables 4a-4d and […], respectively.

[13] = tested on: Birdseye Speedwell; assay: post-emergence herbicide test; conditions: post-emergence, 0.25 lb/A; read-out: % plant inhibition
Excerpt: as §4

[14] = tested on: Rape; assay: post-emergence herbicide test; conditions: post-emergence, 0.25 lb/A; read-out: % plant inhibition
Excerpt: as §4

[15] = tested on: Downy Brome; assay: post-emergence herbicide test; conditions: Bromus tectorum, post-emergence, 0.25 lb/A; read-out: % plant inhibition
Excerpt: as §4

[16] = tested on: Corn; assay: post-emergence herbicide test; conditions: Zea mays, post-emergence, 0.25 lb/A; read-out: % plant inhibition
Excerpt: as §4

[17] = tested on: Seedling Johnsongrass; assay: post-emergence herbicide test; conditions: Sorghum halepense, post-emergence, 0.25 lb/A; read-out: % plant inhibition
Excerpt: as §4

[18] = tested on: Soybean; assay: post-emergence herbicide test; conditions: Glycine max, post-emergence, 0.25 lb/A; read-out: % plant inhibition
Excerpt: as §4

[19] = tested on: Bedstraw Catchweed; assay: post-emergence herbicide test; conditions: Galium aparine, post-emergence, 0.25 lb/A; read-out: % plant inhibition
Excerpt: as §4

[20] = tested on: Cocklebur; assay: post-emergence herbicide test; conditions: Xanthium strumarium, post-emergence, 0.25 lb/A; read-out: % plant inhibition
Excerpt: as §4

[21] = tested on: Green Foxtail; assay: post-emergence herbicide test; conditions: Setaria viridis, post-emergence, 0.25 lb/A; read-out: % plant inhibition
Excerpt: as §4

[22] = tested on: Velvetleaf; assay: post-emergence herbicide test; conditions: Abutilon theophrasti, post-emergence, 0.25 lb/A; read-out: % plant inhibition
Excerpt: as §4

[23] = tested on: Common Chickweed; assay: post-emergence herbicide test; conditions: post-emergence, 0.25 lb/A; read-out: % plant inhibition
Excerpt: as §4

[24] = tested on: Barnyardgrass; assay: post-emergence herbicide test; conditions: Echinochloa crus-galli, post-emergence, 0.25 lb/A; read-out: % plant inhibition
Excerpt: as §4

[25] = tested on: Giant Foxtail; assay: post-emergence herbicide test; conditions: Setaria faberi, post-emergence, 0.25 lb/A; read-out: % plant inhibition
Excerpt: as §4

[26] = tested on: Wild Oats; assay: post-emergence herbicide test; conditions: Avena fatua, post-emergence, 0.25 lb/A; read-out: % plant inhibition
Excerpt: as §4

[27] = tested on: Wheat; assay: post-emergence herbicide test; conditions: Triticum aestivum, post-emergence, 0.25 lb/A; read-out: % plant inhibition
Excerpt: as §4

[28] = tested on: Morning Glory; assay: post-emergence herbicide test; conditions: Ipomoea, post-emergence, 0.25 lb/A; read-out: % plant inhibition
Excerpt: as §4

[29] = tested on: Barnyardgrass; assay: pre-emergence herbicide test; conditions: Echinochloa crus-galli, pre-emergence, 0.25 lb/A; read-out: % plant inhibition
Protocol: as §1, §2, §3

[30] = tested on: Giant Foxtail; assay: pre-emergence herbicide test; conditions: Setaria faberi, pre-emergence, 0.25 lb/A; read-out: % plant inhibition
Protocol: as §1, §2, §3

[31] = tested on: Morning Glory; assay: pre-emergence herbicide test; conditions: 0.25 lb/A
Protocol: as §1, §2, §3

Structure (SMILES) | inhibition at 280.212 g/ha [1] | inhibition at 280.212 g/ha [2] | inhibition at 280.212 g/ha [3] | inhibition at 280.212 g/ha [4] | % plant inhibition [6] | inhibition at 280.212 g/ha [7] | inhibition at 280.212 g/ha [8] | inhibition at 280.212 g/ha [9] | inhibition at 280.212 g/ha [10] | inhibition at 280.212 g/ha [11] | inhibition at 280.212 g/ha [12] | inhibition at 280.212 g/ha [13] | inhibition at 280.212 g/ha [14] | inhibition at 280.212 g/ha [15] | inhibition at 280.212 g/ha [16] | inhibition at 280.212 g/ha [17] | inhibition at 280.212 g/ha [18] | inhibition at 280.212 g/ha [19] | inhibition at 280.212 g/ha [20] | inhibition at 280.212 g/ha [21] | further results
Cc1cc(-c2nn(C)c(C(F)(F)F)c2C)c(F)cc1Cl [Compound 33] | 40% | 55% | 10% | 10% | 5% and 0% | 45% | 50% | 30% | 5% | 0% | 5% | 15% | 5% | 5% | 0% | 0% | 15% | 10% | 0% | 15% | % plant inhibition [5]: 10%; inhibition at 280.212 g/ha [22]: 10%; inhibition at 280.212 g/ha [23]: 10%; inhibition at 280.212 g/ha [24]: 0%; inhibition at 280.212 g/ha [25]: 0%; inhibition at 280.212 g/ha [26]: 5%; inhibition at 280.212 g/ha [27]: 5%; inhibition at 280.212 g/ha [28]: 10%
Cc1c(-c2cc(C(=O)O)c(Cl)cc2F)nn(C)c1C(F)(F)F [Compound 2, 2-Chloro-5-[1,4-dimethyl-5-(trifluoromethyl)-1H-pyrazol-3-yl]-4-fluorobenzoic acid] | 15% | 55% | 20% | 25% | 5% and 0% | 50% | 25% | 60% | 15% | 7% | 10% | 80% | 0% | 0% | 3% | 20% | 20% | 50% | 70% | 15% | inhibition at 280.212 g/ha ([5]; Zea mays, pre-emergence, read-out: % plant inhibition): 0%; inhibition at 280.212 g/ha [29]: 0%; inhibition at 280.212 g/ha [30]: 0%; % plant inhibition [31]: 30%; inhibition at 280.212 g/ha ([31]; Ipomoea, pre-emergence, read-out: % plant inhibition): 35%; inhibition at 280.212 g/ha [22]: 85%; inhibition at 280.212 g/ha [23]: 70%; inhibition at 280.212 g/ha [24]: 15%; inhibition at 280.212 g/ha [25]: 0%; inhibition at 280.212 g/ha [26]: 0%; inhibition at 280.212 g/ha [27]: 0%; inhibition at 280.212 g/ha [28]: 45%
